# Measured values as given in US8937182B2, “Synthesis for thiazolidinedione compounds” (Metabolic Solutions Development Company, LLC, priority 2010, dated 2015).
# System: KKA^Y mice
# Test: Glucose, insulin and triglyceride in diabetic KKAy mice treated with exemplary compounds
# Format: in vivo
# Details: 93 mg/kg oral for 4 days, blood approx. 18 h after last dose, fasted, Vehicle A 24 (5)
# Procedure: (§1) The insulin sensitizing and antidiabetic pharmacology are measured in the KKA^Y mice as previously reported [Hofmann, C., Lornez, K., and Colca, J. R. (1991). Glucose transport deficiency corrected by treatment with the oral anti-hyperglycemic agent Pioglitazone. Endocrinology, 129:1915-1925.] Compounds are formulated in 1% sodium carboxy methylcellulose, and 0.01% tween 20 and dosed daily by oral gavage.
# Glucose, Insulin, and Triglyceride in Diabetic KKAy Mice Treated with Exemplary Compounds of the Present Invention.
# as §1, with “129:1915-1925.].” for “129:1915-1925.]”
# Compounds were formulated by suspension and orally dosed to KKA^Y mice at 93 mg/kg for 4 days. The compounds were first dissolved in DMSO and then placed into aqueous suspension containing 7-10% DMSO, 1% sodium methylcarboxycellulose, and 0.01% Tween 20. On the fifth day, the mice were fasted and blood samples were obtained approximately 18 hours after the last dose. The parameters were measured by standard assay methods. Data are mean and SEM N=6-12 mice.
row,SMILES,Insulin (Mean/SD)
1,"O=C1NC(=O)C(Cc2ccc(OCC(=O)c3ccc(F)cc3)cc2)S1 (stereo not drawn) [Compound 2, 5-{4-[2-(4-fluorophenyl)-2-oxoethoxy]benzyl}-1,3-thiazolidine-2,4-dione]",0.10
2,"O=C1NC(=O)C(Cc2ccc(OCC(=O)c3ccccc3F)cc2)S1 (stereo not drawn) [Compound 3, 5-{4-[2-(2-fluorophenyl)-2-oxoethoxy]benzyl}-1,3-thiazolidine-2,4-dione]",0.20
3,"O=C1NC(=O)C(Cc2ccc(OCC(=O)c3cccc(F)c3)cc2)S1 (stereo not drawn) [Compound 4, 5-{4-[2-(3-fluorophenyl)-2-oxoethoxy]benzyl}-1,3-thiazolidine-2,4-dione]",0.24
4,"O=C1NC(=O)C(Cc2ccc(OCC(=O)c3cccc(Cl)c3)cc2)S1 (stereo not drawn) [Compound 7, 5-{4-[2-(3-chlorophenyl)-2-oxoethoxy]benzyl}-1,3-thiazolidine-2,4-dione]",0.59
5,"O=C1NC(=O)C(Cc2ccc(OCC(=O)c3ccccc3Cl)cc2)S1 (stereo not drawn) [Compound 8, 5-{4-[2-(2-chlorophenyl)-2-oxoethoxy]benzyl}-1,3-thiazolidine-2,4-dione]",0.47
6,"COc1ccc(C(=O)COc2ccc(CC3SC(=O)NC3=O)cc2)cc1 (stereo not drawn) [Compound 9, 5-{4-[2-(4-methoxyphenyl)-2-oxoethoxy]benzyl}-1,3-thiazolidine-2,4-dione]",0.76
